From ChEMBL document CHEMBL3627608, “Crystal structures of human RIP2 kinase catalytic domain complexed with ATP-competitive inhibitors: Foundations for understanding inhibitor selectivity” (Bioorg Med Chem, 2015)

Key:
[1] = molecular target: Serine/threonine-protein kinase 10 (Homo sapiens) (UniProt O94804); assay: Inhibition of LOK (unknown origin) at 10 uM after 120 mins P33 radiolabeled kinase activity assay
[2] = molecular target: Mitogen-activated protein kinase kinase kinase kinase 4 (Homo sapiens) (UniProt O95819); assay: Inhibition of HGK (unknown origin) at 10 uM after 120 mins P33 radiolabeled kinase activity assay
[3] = molecular target: Serine/threonine-protein kinase pim-3 (Homo sapiens) (UniProt Q86V86); assay: Inhibition of PIM3 (unknown origin) at 10 uM after 120 mins P33 radiolabeled kinase activity assay
[4] = molecular target: T1, Phosphorylase b kinase gamma catalytic chain, liver/testis isoform (Homo sapiens) (UniProt P15735); assay: Inhibition of PHKg2 (unknown origin) at 10 uM after 120 mins P33 radiolabeled kinase activity assay
T1 sequence (whole entry): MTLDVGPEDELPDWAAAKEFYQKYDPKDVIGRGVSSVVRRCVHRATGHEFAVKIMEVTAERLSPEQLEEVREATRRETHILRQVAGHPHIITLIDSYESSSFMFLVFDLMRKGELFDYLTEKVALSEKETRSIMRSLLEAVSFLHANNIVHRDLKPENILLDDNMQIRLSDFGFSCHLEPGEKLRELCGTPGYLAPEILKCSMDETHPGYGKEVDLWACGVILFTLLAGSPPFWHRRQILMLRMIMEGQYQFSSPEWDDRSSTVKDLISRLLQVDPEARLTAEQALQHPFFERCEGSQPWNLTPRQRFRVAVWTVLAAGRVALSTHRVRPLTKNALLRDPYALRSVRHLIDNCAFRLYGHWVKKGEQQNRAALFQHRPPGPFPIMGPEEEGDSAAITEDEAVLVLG

[5] = molecular target: Tyrosine-protein kinase ABL1 (Homo sapiens) (UniProt P00519); assay: Inhibition of ABL1 (unknown origin) at 10 uM after 120 mins P33 radiolabeled kinase activity assay
[6] = molecular target: Homeodomain-interacting protein kinase 2 (Homo sapiens) (UniProt Q9H2X6); assay: Inhibition of HIPK2 (unknown origin) at 10 uM after 120 mins P33 radiolabeled kinase activity assay
[7] = molecular target: Ribosomal protein S6 kinase beta-2 (Homo sapiens) (UniProt Q9UBS0); assay: Inhibition of RPS6KB2 (unknown origin) at 10 uM after 120 mins P33 radiolabeled kinase activity assay
[8] = molecular target: Insulin receptor (Homo sapiens) (UniProt P06213); assay: Inhibition of IR (unknown origin) at 10 uM after 120 mins P33 radiolabeled kinase activity assay
Insulin receptor (Homo sapiens), sequence (P06213 28-758 limits assumed): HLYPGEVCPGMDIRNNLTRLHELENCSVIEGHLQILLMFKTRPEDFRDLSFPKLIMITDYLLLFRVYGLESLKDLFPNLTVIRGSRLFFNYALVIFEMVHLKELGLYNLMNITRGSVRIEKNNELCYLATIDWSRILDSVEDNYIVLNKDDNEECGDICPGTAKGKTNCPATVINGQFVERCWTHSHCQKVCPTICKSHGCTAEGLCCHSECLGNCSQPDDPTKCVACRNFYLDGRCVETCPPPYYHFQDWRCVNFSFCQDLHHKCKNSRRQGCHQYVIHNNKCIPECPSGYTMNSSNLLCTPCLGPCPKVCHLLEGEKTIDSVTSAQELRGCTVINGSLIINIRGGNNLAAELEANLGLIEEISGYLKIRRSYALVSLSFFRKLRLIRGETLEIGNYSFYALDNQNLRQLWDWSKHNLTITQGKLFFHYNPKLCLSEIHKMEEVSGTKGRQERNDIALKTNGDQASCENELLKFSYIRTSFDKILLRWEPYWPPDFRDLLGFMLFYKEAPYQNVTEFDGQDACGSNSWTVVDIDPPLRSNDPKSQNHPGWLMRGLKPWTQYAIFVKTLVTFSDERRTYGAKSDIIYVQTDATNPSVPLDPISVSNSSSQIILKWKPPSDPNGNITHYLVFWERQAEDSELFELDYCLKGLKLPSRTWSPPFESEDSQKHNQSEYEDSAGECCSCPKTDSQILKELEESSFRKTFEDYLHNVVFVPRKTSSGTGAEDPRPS
Insulin receptor (Homo sapiens), sequence (P06213 763-1382 limits assumed): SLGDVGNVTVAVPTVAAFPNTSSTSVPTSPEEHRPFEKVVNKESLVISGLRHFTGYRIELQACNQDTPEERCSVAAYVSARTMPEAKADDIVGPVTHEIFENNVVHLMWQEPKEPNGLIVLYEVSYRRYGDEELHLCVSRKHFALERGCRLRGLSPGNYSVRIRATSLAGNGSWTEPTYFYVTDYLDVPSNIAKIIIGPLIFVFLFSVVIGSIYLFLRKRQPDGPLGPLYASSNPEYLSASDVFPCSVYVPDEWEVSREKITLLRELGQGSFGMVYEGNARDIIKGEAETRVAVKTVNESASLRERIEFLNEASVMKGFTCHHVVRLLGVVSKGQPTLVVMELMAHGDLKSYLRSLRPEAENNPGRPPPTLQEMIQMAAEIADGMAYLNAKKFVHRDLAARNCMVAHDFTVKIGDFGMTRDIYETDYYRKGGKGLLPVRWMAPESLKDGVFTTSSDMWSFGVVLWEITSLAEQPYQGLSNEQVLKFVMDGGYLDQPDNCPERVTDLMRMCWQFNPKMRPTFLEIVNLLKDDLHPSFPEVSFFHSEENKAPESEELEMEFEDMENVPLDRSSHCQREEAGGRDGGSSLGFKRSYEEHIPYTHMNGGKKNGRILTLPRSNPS

[9] = molecular target: G protein-coupled receptor kinase 5 (Homo sapiens) (UniProt P34947); assay: Inhibition of GRK5 (unknown origin) at 10 uM after 120 mins P33 radiolabeled kinase activity assay
G protein-coupled receptor kinase 5 (Homo sapiens), sequence (P34947 whole entry, looked up): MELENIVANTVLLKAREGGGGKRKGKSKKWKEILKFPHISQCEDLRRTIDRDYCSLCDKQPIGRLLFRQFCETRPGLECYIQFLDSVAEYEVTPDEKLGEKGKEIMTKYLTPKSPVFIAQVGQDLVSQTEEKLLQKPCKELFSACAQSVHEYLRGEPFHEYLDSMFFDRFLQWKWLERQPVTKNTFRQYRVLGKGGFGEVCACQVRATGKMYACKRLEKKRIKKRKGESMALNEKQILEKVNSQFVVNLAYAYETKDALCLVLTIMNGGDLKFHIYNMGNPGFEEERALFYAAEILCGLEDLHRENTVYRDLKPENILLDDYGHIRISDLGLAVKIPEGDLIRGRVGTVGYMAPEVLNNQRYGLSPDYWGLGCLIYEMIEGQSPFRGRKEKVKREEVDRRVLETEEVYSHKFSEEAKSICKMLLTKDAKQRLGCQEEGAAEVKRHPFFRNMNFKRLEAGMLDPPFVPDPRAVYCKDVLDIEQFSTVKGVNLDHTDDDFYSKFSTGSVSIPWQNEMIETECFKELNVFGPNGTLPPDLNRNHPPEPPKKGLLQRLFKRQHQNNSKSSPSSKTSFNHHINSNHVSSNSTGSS

[10] = molecular target: T2, Serine/threonine-protein kinase TAO1 (Homo sapiens) (UniProt Q7L7X3); assay: Inhibition of TAOK1 (unknown origin) at 10 uM after 120 mins P33 radiolabeled kinase activity assay
T2 sequence (whole entry): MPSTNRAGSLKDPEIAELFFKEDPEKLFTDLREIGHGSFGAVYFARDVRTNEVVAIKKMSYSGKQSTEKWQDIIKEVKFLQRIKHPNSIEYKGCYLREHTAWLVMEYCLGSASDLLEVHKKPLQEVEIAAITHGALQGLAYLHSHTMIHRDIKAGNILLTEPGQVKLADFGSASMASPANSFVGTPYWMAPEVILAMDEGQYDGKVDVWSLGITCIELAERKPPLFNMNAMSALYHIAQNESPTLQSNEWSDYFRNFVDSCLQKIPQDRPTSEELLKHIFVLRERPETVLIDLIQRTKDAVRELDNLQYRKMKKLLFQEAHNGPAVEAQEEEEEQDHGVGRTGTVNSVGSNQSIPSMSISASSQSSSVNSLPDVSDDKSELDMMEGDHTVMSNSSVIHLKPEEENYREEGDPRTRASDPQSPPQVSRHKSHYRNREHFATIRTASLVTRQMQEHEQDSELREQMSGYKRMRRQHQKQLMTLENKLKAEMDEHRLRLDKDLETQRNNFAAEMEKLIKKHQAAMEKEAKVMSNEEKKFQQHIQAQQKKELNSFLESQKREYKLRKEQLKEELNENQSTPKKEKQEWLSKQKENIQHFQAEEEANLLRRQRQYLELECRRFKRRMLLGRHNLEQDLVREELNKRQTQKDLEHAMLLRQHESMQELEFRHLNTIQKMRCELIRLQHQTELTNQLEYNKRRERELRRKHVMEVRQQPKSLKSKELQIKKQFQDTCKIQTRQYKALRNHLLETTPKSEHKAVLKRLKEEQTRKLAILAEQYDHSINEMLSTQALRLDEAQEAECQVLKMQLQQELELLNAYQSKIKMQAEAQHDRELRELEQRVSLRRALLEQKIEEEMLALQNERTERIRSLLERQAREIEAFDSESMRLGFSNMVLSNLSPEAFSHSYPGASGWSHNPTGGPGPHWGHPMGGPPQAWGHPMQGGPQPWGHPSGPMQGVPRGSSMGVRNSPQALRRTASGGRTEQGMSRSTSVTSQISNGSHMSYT

[11] = molecular target: Mitogen-activated protein kinase kinase kinase 20 (Homo sapiens) (UniProt Q9NYL2); assay: Inhibition of ZAK (unknown origin) at 10 uM after 120 mins P33 radiolabeled kinase activity assay
Mitogen-activated protein kinase kinase kinase 20 (Homo sapiens), sequence (Q9NYL2 2-800 limits assumed): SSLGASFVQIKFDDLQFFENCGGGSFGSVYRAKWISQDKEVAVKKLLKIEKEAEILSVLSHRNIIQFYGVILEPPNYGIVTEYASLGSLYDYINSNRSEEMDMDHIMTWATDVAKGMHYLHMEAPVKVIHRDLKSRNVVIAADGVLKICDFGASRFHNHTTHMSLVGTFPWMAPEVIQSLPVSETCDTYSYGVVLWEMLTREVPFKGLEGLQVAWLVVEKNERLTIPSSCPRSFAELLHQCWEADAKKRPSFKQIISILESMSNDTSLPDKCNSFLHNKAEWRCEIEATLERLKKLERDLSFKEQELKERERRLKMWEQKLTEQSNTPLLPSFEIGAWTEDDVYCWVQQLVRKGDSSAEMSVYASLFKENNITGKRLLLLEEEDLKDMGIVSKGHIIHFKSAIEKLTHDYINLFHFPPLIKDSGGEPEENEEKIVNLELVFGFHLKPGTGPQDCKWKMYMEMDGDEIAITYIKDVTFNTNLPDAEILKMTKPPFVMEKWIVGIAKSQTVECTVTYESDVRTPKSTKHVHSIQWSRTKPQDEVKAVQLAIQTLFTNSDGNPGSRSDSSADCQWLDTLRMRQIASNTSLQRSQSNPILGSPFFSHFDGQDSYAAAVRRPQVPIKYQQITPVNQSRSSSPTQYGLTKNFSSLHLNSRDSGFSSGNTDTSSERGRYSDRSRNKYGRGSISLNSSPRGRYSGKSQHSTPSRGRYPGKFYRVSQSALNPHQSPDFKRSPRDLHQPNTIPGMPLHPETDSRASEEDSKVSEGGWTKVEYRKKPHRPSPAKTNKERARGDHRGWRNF

[12] = molecular target: Mitogen-activated protein kinase 11 (Homo sapiens) (UniProt Q15759); assay: Inhibition of P38beta (unknown origin) at 10 uM after 120 mins P33 radiolabeled kinase activity assay
Mitogen-activated protein kinase 11 (Homo sapiens), sequence (Q15759 whole entry): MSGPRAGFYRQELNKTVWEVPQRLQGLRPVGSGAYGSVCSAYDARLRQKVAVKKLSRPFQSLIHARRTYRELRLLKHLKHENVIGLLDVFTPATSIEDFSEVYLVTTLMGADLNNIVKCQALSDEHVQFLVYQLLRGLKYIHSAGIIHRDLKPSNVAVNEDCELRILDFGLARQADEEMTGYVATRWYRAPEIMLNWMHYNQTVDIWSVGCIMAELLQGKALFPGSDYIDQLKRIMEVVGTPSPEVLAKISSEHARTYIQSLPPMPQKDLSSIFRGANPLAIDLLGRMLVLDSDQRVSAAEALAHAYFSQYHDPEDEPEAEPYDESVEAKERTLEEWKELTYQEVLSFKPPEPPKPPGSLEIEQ

[13] = molecular target: MAP kinase-activated protein kinase 3 (Homo sapiens) (UniProt Q16644); assay: Inhibition of MAPKAPK3 (unknown origin) at 10 uM after 120 mins P33 radiolabeled kinase activity assay
MAP kinase-activated protein kinase 3 (Homo sapiens), sequence (Q16644 whole entry, looked up): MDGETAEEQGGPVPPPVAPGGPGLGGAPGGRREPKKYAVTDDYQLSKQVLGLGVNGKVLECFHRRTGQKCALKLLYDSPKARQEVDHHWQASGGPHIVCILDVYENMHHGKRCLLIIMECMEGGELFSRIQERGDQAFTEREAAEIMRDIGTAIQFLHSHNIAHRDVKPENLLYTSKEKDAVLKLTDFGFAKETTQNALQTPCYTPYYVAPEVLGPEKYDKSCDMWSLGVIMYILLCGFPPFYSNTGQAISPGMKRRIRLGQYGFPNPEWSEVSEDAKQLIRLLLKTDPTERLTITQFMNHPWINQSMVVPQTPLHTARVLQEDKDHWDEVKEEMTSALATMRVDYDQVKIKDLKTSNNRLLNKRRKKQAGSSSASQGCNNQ

[14] = molecular target: T3, Rhodopsin kinase GRK7 (Homo sapiens) (UniProt Q8WTQ7); assay: Inhibition of GRK7 (unknown origin) at 10 uM after 120 mins P33 radiolabeled kinase activity assay
T3 sequence (whole entry): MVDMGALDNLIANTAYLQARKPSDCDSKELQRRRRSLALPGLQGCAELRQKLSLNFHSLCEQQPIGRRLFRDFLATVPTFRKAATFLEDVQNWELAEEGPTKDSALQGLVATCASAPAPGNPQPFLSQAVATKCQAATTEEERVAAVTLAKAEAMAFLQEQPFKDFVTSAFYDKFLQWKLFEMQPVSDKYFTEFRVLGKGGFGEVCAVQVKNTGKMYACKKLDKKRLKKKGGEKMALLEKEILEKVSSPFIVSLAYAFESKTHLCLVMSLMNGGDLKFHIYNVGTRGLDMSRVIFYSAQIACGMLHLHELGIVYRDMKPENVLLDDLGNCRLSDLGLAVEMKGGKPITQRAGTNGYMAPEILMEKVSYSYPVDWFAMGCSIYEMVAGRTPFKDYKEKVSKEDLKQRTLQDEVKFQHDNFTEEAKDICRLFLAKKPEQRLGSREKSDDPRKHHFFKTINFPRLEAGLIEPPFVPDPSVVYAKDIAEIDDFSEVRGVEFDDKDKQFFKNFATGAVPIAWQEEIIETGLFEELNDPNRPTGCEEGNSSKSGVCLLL

Serine/threonine-protein kinase 10 (Homo sapiens), sequence (O94804 whole entry, looked up): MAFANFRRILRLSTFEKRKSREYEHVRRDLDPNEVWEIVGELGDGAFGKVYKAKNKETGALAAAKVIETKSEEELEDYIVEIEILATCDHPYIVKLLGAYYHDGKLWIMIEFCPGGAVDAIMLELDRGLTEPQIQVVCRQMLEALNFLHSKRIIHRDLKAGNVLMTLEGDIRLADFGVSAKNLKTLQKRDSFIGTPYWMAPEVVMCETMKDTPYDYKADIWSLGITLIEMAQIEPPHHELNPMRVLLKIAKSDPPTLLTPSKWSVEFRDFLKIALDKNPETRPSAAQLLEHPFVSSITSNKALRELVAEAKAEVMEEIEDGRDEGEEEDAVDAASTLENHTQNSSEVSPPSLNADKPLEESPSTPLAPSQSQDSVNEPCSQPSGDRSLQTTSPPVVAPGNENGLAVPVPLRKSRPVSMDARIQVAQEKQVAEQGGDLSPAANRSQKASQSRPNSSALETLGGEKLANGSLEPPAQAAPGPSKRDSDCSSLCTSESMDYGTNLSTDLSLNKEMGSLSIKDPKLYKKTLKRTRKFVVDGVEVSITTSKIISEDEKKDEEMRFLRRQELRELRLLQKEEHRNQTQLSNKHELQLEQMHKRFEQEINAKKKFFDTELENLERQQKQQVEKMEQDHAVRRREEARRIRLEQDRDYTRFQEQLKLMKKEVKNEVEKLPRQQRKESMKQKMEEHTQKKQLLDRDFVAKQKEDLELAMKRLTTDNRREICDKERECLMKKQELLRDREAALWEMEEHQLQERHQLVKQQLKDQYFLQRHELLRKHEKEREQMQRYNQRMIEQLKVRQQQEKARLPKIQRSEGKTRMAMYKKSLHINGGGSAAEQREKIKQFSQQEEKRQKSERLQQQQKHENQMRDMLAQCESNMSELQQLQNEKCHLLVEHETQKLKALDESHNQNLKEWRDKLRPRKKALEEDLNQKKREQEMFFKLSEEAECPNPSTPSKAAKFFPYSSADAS

| inhibition [1] | inhibition [2] | inhibition [3] | inhibition [4] | inhibition [5] | inhibition [6] | inhibition [7] | inhibition [8] | inhibition [9] | inhibition [10] | inhibition [11] | inhibition [12] | inhibition [13] | inhibition [14] | Structure (SMILES) |
| --- | --- | --- | --- | --- | --- | --- | --- | --- | --- | --- | --- | --- | --- | --- |
| 74.8% | 63.3% | 17.3% | 5.98% | 98.1% | 91.4% | 11.1% | 0.58% | -3.67% | 43.6% | 99.8% | -5.84% | -3.69% | 25.3% | CS(=O)(=O)c1cccc(Nc2nccc(-c3sc(N4CCOCC4)nc3-c3cccc(NS(=O)(=O)c4c(F)cccc4F)c3)n2)c1 |
| 28.4% | 57.7% | 3.38% | 3.38% | 65.6% | -4.82% | 6.27% | 2.89% | -6.1% | 1.85% | 38.8% | 10% | 0.16% | 2.32% | COCCNC(=O)c1ccc2c(c1)nc(-c1cnc(-c3ccc(Cl)cc3)[nH]1)n2CCOC |
| 92.8% | 99.8% | 69.2% | -3.81% | 88.4% | 18.1% | 52.2% | 21.6% | -7.31% | 90.4% | 99.8% | 96.2% | -4.91% | 2.1% | CC(C)(C)c1cc(NC(=O)Nc2ccc(Oc3ccncc3)cc2)no1 |
